Experiments:
hepatitis C replicon = hepatitis C replicon EC50; format: cell-based; details: Hepatitis C virus; Table 2; hepatitis C replicon; read-out: EC50
Text: NS3-NS4 inhibition activity can be determined using known assay methods.

NS3/NS4 complexes = NS3/NS4 complexes (Hepatitis C virus genotype 1a, UniProt P27958); test: NS3/NS4 inhibition activity (IC50); format: biochemical; details: Table 2, read-out: IC50
Outline: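 NS3/NS4 complexes were formed and compound inhibitory concentrations determined at ambient temperature (23 °C). The buffer contained 50 mM Tris-HCl pH 7.5, 15% glycerol, 0.6 mM LDAO, 25 μM NS4A peptide and 10 mM DTT.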

Chain of NS3/NS4 complexes (P27958 1027-1657): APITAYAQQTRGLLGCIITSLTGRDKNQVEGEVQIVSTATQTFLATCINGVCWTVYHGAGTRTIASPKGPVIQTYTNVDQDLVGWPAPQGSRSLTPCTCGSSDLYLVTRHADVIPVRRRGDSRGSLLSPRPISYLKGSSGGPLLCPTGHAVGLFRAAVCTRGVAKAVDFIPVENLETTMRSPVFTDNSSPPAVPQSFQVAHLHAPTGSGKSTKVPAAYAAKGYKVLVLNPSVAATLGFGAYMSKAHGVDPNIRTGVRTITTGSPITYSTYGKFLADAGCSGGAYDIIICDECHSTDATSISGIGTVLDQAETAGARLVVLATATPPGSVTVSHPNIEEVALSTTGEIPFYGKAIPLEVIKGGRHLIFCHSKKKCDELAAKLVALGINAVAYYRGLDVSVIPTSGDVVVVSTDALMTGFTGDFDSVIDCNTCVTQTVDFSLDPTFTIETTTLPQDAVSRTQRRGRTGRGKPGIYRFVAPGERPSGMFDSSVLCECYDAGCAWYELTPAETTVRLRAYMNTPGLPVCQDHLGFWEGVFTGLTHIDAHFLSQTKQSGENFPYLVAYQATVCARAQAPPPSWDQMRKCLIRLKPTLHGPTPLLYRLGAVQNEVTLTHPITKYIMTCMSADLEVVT
Chain of NS3/NS4 complexes (P27958 1658-1711): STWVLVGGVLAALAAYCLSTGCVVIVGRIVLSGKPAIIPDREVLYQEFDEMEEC

Compound | EC50 (hepatitis C replicon) | IC50 (NS3/NS4 complexes)
O=C1N[C@]2(C(=O)O)C[C@H]2/C=C\CCCCC[C@H](Nc2ccc(Cl)cc2)C(=O)N2C[C@H](Oc3nc4ccccc4s3)C[C@@H]12 [Compound 331] | > 0.5 µM | 0.075 to 0.5 µM
CC1(S(=O)(=O)NC(=O)[C@@]23C[C@H]2/C=C\CCCCC[C@H](Nc2ccc(Cl)cc2)C(=O)N2C[C@H](Oc4nc5ccccc5s4)C[C@H]2C(=O)N3)CC1 [Compound 332] | 0.075 to 0.5 µM | < 0.01 µM
O=C1N[C@]2(C(=O)O)C[C@H]2/C=C\CCCCC[C@H](Nc2ccc(Cl)c(Cl)c2)C(=O)N2C[C@H](Oc3nc4ccccc4s3)C[C@@H]12 [Compound 333] | > 0.5 µM | 0.075 to 0.5 µM
CC1(S(=O)(=O)NC(=O)[C@@]23C[C@H]2/C=C\CCCCC[C@H](Nc2ccc(Cl)c(Cl)c2)C(=O)N2C[C@H](Oc4nc5ccccc5s4)C[C@H]2C(=O)N3)CC1 [Compound 334] | 0.075 to 0.5 µM | < 0.01 µM
O=C1N[C@]2(C(=O)O)C[C@H]2/C=C\CCCCC[C@H](Nc2cccc(Cl)c2)C(=O)N2C[C@H](Oc3nc4ccccc4s3)C[C@@H]12 [Compound 335] | > 0.5 µM | 0.01 to 0.075 µM
CC1(S(=O)(=O)NC(=O)[C@@]23C[C@H]2/C=C\CCCCC[C@H](Nc2cc(C(F)(F)F)cc(C(F)(F)F)c2)C(=O)N2C[C@H](Oc4nc5ccccc5s4)C[C@H]2C(=O)N3)CC1 [Compound 336] | 0.075 to 0.5 µM | < 0.01 µM
CC1(S(=O)(=O)NC(=O)[C@@]23C[C@H]2/C=C\CCCCC[C@H](Nc2cccc(Cl)c2)C(=O)N2C[C@H](Oc4nc5ccccc5s4)C[C@H]2C(=O)N3)CC1 [Compound 337] | 0.075 to 0.5 µM | < 0.01 µM
O=C1N[C@]2(C(=O)O)C[C@H]2/C=C\CCCCC[C@H](Nc2cc(C(F)(F)F)cc(C(F)(F)F)c2)C(=O)N2C[C@H](Oc3nc4ccccc4s3)C[C@@H]12 [Compound 338] | > 0.5 µM | 0.075 to 0.5 µM
CC1(S(=O)(=O)NC(=O)[C@@]23C[C@H]2/C=C\CCCCC[C@H](Nc2ccccc2F)C(=O)N2C[C@H](Oc4nc5ccccc5s4)C[C@H]2C(=O)N3)CC1 [Compound 339] | 0.075 to 0.5 µM | < 0.01 µM
CC1(S(=O)(=O)NC(=O)[C@@]23C[C@H]2/C=C\CCCCC[C@H](Nc2cc(Cl)cc(Cl)c2)C(=O)N2C[C@H](Oc4nc5ccccc5s4)C[C@H]2C(=O)N3)CC1 [Compound 340] | 0.01 to 0.075 µM | < 0.01 µM
CC1(S(=O)(=O)NC(=O)[C@@]23C[C@H]2/C=C\CCCCC[C@H](Nc2ccc(F)c(F)c2)C(=O)N2C[C@H](Oc4nc5ccccc5s4)C[C@H]2C(=O)N3)CC1 [Compound 341] | 0.01 to 0.075 µM | < 0.01 µM
CC1(S(=O)(=O)NC(=O)[C@@]23C[C@H]2/C=C\CCCCC[C@H](Nc2ccc4ccccc4c2)C(=O)N2C[C@H](Oc4nc5ccccc5s4)C[C@H]2C(=O)N3)CC1 [Compound 342] | 0.075 to 0.5 µM | < 0.01 µM
CC1(S(=O)(=O)NC(=O)[C@@]23C[C@H]2/C=C\CCCCC[C@H](Nc2cc(F)cc(C(F)(F)F)c2)C(=O)N2C[C@H](Oc4nc5ccccc5s4)C[C@H]2C(=O)N3)CC1 [Compound 345] | 0.01 to 0.075 µM | < 0.01 µM
CC1(S(=O)(=O)NC(=O)[C@@]23C[C@H]2/C=C\CCCCC[C@H](Nc2cc(F)cc(C(F)(F)F)c2)C(=O)N2C[C@H](Oc4nccc5ccccc45)C[C@H]2C(=O)N3)CC1 [Compound 346] | < 0.01 µM | < 0.01 µM
CC1(S(=O)(=O)NC(=O)[C@@]23C[C@H]2/C=C\CCCCC[C@H](Nc2ccc(F)c(C(F)(F)F)c2)C(=O)N2C[C@H](Oc4nccc5ccccc45)C[C@H]2C(=O)N3)CC1 [Compound 347] | < 0.01 µM | < 0.01 µM
O=C1N[C@]2(C(=O)NS(=O)(=O)C3CC3)C[C@H]2/C=C\CCCCC[C@H](Nc2ccc(F)cc2)C(=O)N2C[C@H](Oc3nc4ccccc4s3)C[C@@H]12 [Compound 348] | 0.075 to 0.5 µM | < 0.01 µM
CC1(S(=O)(=O)NC(=O)[C@@]23C[C@H]2/C=C\CCCCC[C@H](Nc2ccc(F)cc2)C(=O)N2C[C@H](Oc4nc5ccccc5s4)C[C@H]2C(=O)N3)CC1 [Compound 349] | 0.01 to 0.075 µM | < 0.01 µM
Cc1ccc2nc(O[C@@H]3C[C@H]4C(=O)N[C@]5(C(=O)NS(=O)(=O)C6(C)CC6)C[C@H]5/C=C\CCCCC[C@H](Nc5cc(F)cc(C(F)(F)F)c5)C(=O)N4C3)sc2c1 [Compound 350] | 0.075 to 0.5 µM | < 0.01 µM
CC1(S(=O)(=O)NC(=O)[C@@]23C[C@H]2/C=C\CCCCC[C@H](Nc2cc(F)cc(C(F)(F)F)c2)C(=O)N2C[C@H](Oc4nc5ccc(Cl)cc5s4)C[C@H]2C(=O)N3)CC1 [Compound 351] | 0.075 to 0.5 µM | < 0.01 µM
CC1(S(=O)(=O)NC(=O)[C@@]23C[C@H]2/C=C\CCCCC[C@H](Nc2cc(F)cc(C(F)(F)F)c2)C(=O)N2C[C@H](Oc4nc5ccc(Br)cc5s4)C[C@H]2C(=O)N3)CC1 [Compound 352] | 0.01 to 0.075 µM | < 0.01 µM
CC1(S(=O)(=O)NC(=O)[C@@]23C[C@H]2/C=C\CCCCC[C@H](Nc2cc(F)cc(C(F)(F)F)c2)C(=O)N2C[C@H](Oc4nc5ccccc5o4)C[C@H]2C(=O)N3)CC1 [Compound 353] | 0.075 to 0.5 µM | < 0.01 µM
COc1ccc2c(O[C@@H]3C[C@H]4C(=O)N[C@]5(C(=O)O)C[C@H]5/C=C\CCCCC[C@H](Nc5cc(F)cc(C(F)(F)F)c5)C(=O)N4C3)cc(-c3ccccc3)nc2c1 [Compound 354] | 0.075 to 0.5 µM | < 0.01 µM
COc1ccc2c(O[C@@H]3C[C@H]4C(=O)N[C@]5(C(=O)NS(=O)(=O)C6(C)CC6)C[C@H]5/C=C\CCCCC[C@H](Nc5cc(F)cc(C(F)(F)F)c5)C(=O)N4C3)cc(-c3ccccc3)nc2c1 [Compound 355] | < 0.01 µM | < 0.01 µM
COc1ccc2c(O[C@@H]3C[C@H]4C(=O)N[C@]5(C(=O)NS(=O)(=O)C6CC6)C[C@H]5/C=C\CCCCC[C@H](Nc5ccc(F)c(C(F)(F)F)c5)C(=O)N4C3)cc(-c3ccccc3)nc2c1 [Compound 356] | < 0.01 µM | < 0.01 µM
COc1ccc2c(O[C@@H]3C[C@H]4C(=O)N[C@]5(C(=O)NS(=O)(=O)C6(C)CC6)C[C@H]5/C=C\CCCCC[C@H](Nc5cc(F)cc(C(F)(F)F)c5)C(=O)N4C3)cc(-c3nc(C(C)C)cs3)nc2c1C [Compound 358] | 0.01 to 0.075 µM | < 0.01 µM
COc1ccc2c(O[C@@H]3C[C@H]4C(=O)N[C@]5(C(=O)NS(=O)(=O)C6(C)CC6)C[C@H]5/C=C\CCCCC[C@H](Nc5ccccc5)C(=O)N4C3)cc(-c3nc(C(C)C)cs3)nc2c1C [Compound 359] | < 0.01 µM | < 0.01 µM
COc1ccc2c(O[C@@H]3C[C@H]4C(=O)N[C@]5(C(=O)NS(=O)(=O)C6(C)CC6)C[C@H]5/C=C\CCCCC[C@H](Nc5cccc(C(F)(F)F)c5)C(=O)N4C3)cc(-c3nc(C(C)C)cs3)nc2c1C [Compound 360] | < 0.01 µM | < 0.01 µM
COc1ccc2c(O[C@@H]3C[C@H]4C(=O)N[C@]5(C(=O)NS(=O)(=O)C6(C)CC6)C[C@H]5/C=C\CCCCC[C@H](Nc5cccc(F)c5)C(=O)N4C3)cc(-c3nc(C(C)C)cs3)nc2c1C [Compound 361] | < 0.01 µM | < 0.01 µM
COc1ccc2c(O[C@@H]3C[C@H]4C(=O)N[C@]5(C(=O)NS(=O)(=O)C6(C)CC6)C[C@H]5/C=C\CCCCC[C@H](Nc5ccc(F)cc5)C(=O)N4C3)cc(-c3nc(C(C)C)cs3)nc2c1C [Compound 362] | < 0.01 µM | < 0.01 µM
